{
  "source": "patent US9868935B2",
  "about": "“Composition and method of stem cells for preservation of cardiac tissue” (CRIOESTAMINAL, SAÚDE E TECNOLOGIA, SA., priority 2012, dated 2018)",
  "system": "CD34+ cells",
  "experiment": "CD34+ cell self-renewal/differentiation by FACS",
  "assay_type": "cell-based, human",
  "conditions": "LPA-treated; after 1 day of hypoxia",
  "description": "In an embodiment, multicolor analysis for progenitor and stem cell phenotyping was performed on a FACS Calibur cytometer (preferably, Becton Dickinson). Cells were stained for 1 h with APC or pacific blue antihuman CD45 (preferably, e-Bioscience), FITC anti-mouse CD45 (preferably, -Bioscience), PeCy7 anti-human CD33 (preferably, BD Bioscience), PE anti-human CD11b (preferably, BD Bioscience), FITC anti-human CD19 (preferably, BD Bioscience), PeCy7 anti-human CD3 (preferably, BD Bioscience), PE anti-human Glycophorin A (preferably, BD Bioscience), FITC anti-human CD41 (preferably, e-bioscience), and PeCy7 anti-human CD56 (preferably, BD Bioscience), washed with staining media and analyzed.\nTo examine the effect of LPA in CD34+ cell self-renewal/differentiation, untreated and LPA-treated CD34+ cells were cultured in X-vivo medium in hypoxia conditions for 1 day followed or not by 6 days in normoxia and finally characterized by FACS. After 1 day of hypoxia, both untreated or LPA-treated CD34+ cells started to differentiate into mast cells (between 14 and 17%) and neutrophils (between 5 and 8%) (FIG. 3B). Only 78% and 72% of the untreated or LPA-treated CD34+ cells express CD34 marker. CD34 expression is higher in cells that have been exposed to hypoxia than in normoxia conditions since only 6% of the cells cultured in normoxia conditions for 24 h express CD34 marker. […]",
  "data": [
    {"substance": "lysophosphatidic acid [LPA]", "values": [
      {"measurement": "cells expressing CD34 marker", "value": 72, "unit": "%"}
    ]}
  ]
}
